In brackets after ≈: the same amount, converted by molar mass.
Conditions: buffer; pH 7.4; 200.0 µM
For Cc1ccc(NS(=O)(=O)c2ccc3c(c2)N(C)CCO3)cc1, the solubility kinetic was 36.1 µg/mL (≈ 113 µM).
Work on Cn1cc(Cl)cc(C(=O)Nc2ccccc2)c1=O yielded a solubility kinetic of 2 µg/mL (≈ 7.61 µM).
With O=C(NC1CCC(O)CC1)c1ccc(Br)o1 (stereo not given) the solubility kinetic was > 43.2 µg/mL.
Compound Cc1cc(NC(=O)c2ccc(F)cc2)no1 has a solubility kinetic of 20.7 µg/mL (≈ 94 µM).
In the case of CC(C)(C)CC(=O)Nc1ccc(-c2cn3cccnc3n2)cc1, the solubility kinetic is reported as 40.3 µg/mL (≈ 131 µM).
In the case of CC(=O)c1cc2c(cc1NC(=O)Cc1c(C)noc1C)OCO2, the solubility kinetic is reported as > 47.4 µg/mL.
In the case of O=C(CNC(=O)COc1ccccc1)NCCc1ccccn1, the solubility kinetic is reported as > 47 µg/mL.
With COc1ccccc1NC(=O)c1ccc(-n2ccnc2)c([N+](=O)[O-])c1 the solubility kinetic was > 50.7 µg/mL.
With O=C(Cc1ccccc1)Nc1ccc(NC(=O)c2cccs2)cc1 the solubility kinetic was < 0.4 µg/mL.
For O=C(Nc1ccc(F)c([N+](=O)[O-])c1)C1CCCO1 (stereo not given), the solubility kinetic was > 38.1 µg/mL.
In the case of O=C(Oc1ccccc1)N1CCOCC1, the solubility kinetic is reported as > 31.1 µg/mL.
COc1ccc(OC)c(S(=O)(=O)NCC(=O)O)c1 showed a solubility kinetic of 34.1 µg/mL (≈ 124 µM).
In the case of O=C(Nc1ccccc1N1CCOCC1)c1ccc([N+](=O)[O-])s1, the solubility kinetic is reported as 4.6 µg/mL (≈ 13.8 µM).
With Cn1c(O)c(/C=C2/C=CC=N2)c(=O)[nH]c1=O the solubility kinetic was > 32.9 µg/mL.
With O=C(CN1C(=O)c2ccccc2C1=O)Oc1ccc(Cl)cc1 the solubility kinetic was 28 µg/mL (≈ 88.7 µM).
In the case of Cc1ccc(N=C(NO)c2cnccc2C(F)(F)F)c(C)c1, the solubility kinetic is reported as > 46.4 µg/mL.
In the case of Nc1cccc(-n2cccc2)c1, the solubility kinetic is reported as 18.2 µg/mL (≈ 115 µM).
Work on CCN(CCO)Cc1cc(=O)oc2cc3c(cc12)CCC3 yielded a solubility kinetic of 42.1 µg/mL (≈ 147 µM).
Compound O=C1c2cccc3cccc(c23)N1Cc1cccc(F)c1 has a solubility kinetic of 2.6 µg/mL (≈ 9.38 µM).
Work on Cc1nc(NC(=O)C2CC2)sc1C(=O)Nc1cccc(Cl)c1 yielded a solubility kinetic of 0.8 µg/mL (≈ 2.38 µM).
Work on COc1ccccc1NC(=O)[C@@H]1CCCN1S(=O)(=O)c1ccc(Cl)cc1 yielded a solubility kinetic of 32.4 µg/mL (≈ 82.1 µM).
Compound Cc1cc(C)cc(N2CCCn3c2nc2c3c(=O)[nH]c(=O)n2C)c1 has a solubility kinetic of 3.3 µg/mL (≈ 10.1 µM).
Cc1ccc(NC(=O)CN(C)C(=O)C2CC(=O)N(Cc3ccccc3)C2)cc1 (stereo not given) gave a solubility kinetic of 44.7 µg/mL (≈ 118 µM).
For O=S(=O)(c1ccc(-c2cc(C(F)(F)F)on2)s1)N1CCCC1, the solubility kinetic was 1 µg/mL (≈ 2.84 µM).
Compound COCCNC(=O)Cn1cc(C=C2C(=O)NC(=O)NC2=O)c2ccccc21 has a solubility kinetic of 6.3 µg/mL (≈ 17 µM).
With CNC(=O)C1=C(C)Nc2nc3ccccc3n2C1c1ccc(F)cc1 (stereo not given) the solubility kinetic was 48.9 µg/mL (≈ 145 µM).
In the case of COc1ccc(C(=O)NCc2c(C)oc(C)c2C(=O)O)cc1, the solubility kinetic is reported as > 45.5 µg/mL.
For CC(=O)N/C(=C\c1ccccc1)C(=O)NC(C)C(=O)O (stereo not given), the solubility kinetic was > 41.4 µg/mL.
For COc1ccc(NC(=O)C(c2ccc(Cl)cc2)C(C)C)cn1 (stereo not given), the solubility kinetic was 13.5 µg/mL (≈ 42.3 µM).
With CCCOc1ccccc1NC(=O)c1ccc([N+](=O)[O-])cc1 the solubility kinetic was 4.1 µg/mL (≈ 13.7 µM).
With O=C(CN1CCN(Cc2ccccc2)CC1)N/N=C/c1ccco1 the solubility kinetic was > 49 µg/mL.
COc1ccc(/C=C/C(=O)NCCSCc2ccco2)cc1OC showed a solubility kinetic of 41.9 µg/mL (≈ 121 µM).
Work on CC(C)CCN1CCC(N)=NC1=O yielded a solubility kinetic of 26.8 µg/mL (≈ 146 µM).
With CC(C)OP(=O)(OC(C)C)C(O)c1ccc(N(C)C)cc1 (stereo not given) the solubility kinetic was > 47.3 µg/mL.
O=C(CSc1nc2ccccc2[nH]1)NC1CCCC1 gave a solubility kinetic of 38.7 µg/mL (≈ 141 µM).
In the case of Cc1onc(-c2c(Cl)cccc2Cl)c1C(=O)Nc1ccc(Cl)cn1, the solubility kinetic is reported as 3.9 µg/mL (≈ 10.2 µM).
Work on N/C(=N\OC(=O)c1cccc(C(F)(F)F)c1)c1cnccn1 yielded a solubility kinetic of 2.4 µg/mL (≈ 7.74 µM).
With Cn1cnnc1Sc1ccc(S(C)(=O)=O)cc1[N+](=O)[O-] the solubility kinetic was > 47.1 µg/mL.
O=[N+]([O-])c1ccc(OCc2cnc(Cl)s2)c([N+](=O)[O-])c1 showed a solubility kinetic of 4.7 µg/mL (≈ 14.9 µM).
For CCOC(=O)Nc1ccc2c(c1)N(C(=O)CN)c1ccccc1CC2, the solubility kinetic was 36.6 µg/mL (≈ 108 µM).
CC1CCCN(C(=O)COC(=O)Cc2ccc(Cl)cc2)C1 (stereo not given) gave a solubility kinetic of 29.8 µg/mL (≈ 96.2 µM).
In the case of Cc1ccc(C(=O)N/C(=C/c2ccco2)C(=O)NCc2ccco2)cc1, the solubility kinetic is reported as > 52.6 µg/mL.
For Cc1ccc(C(=O)NCC(=O)Nc2ccncc2)s1, the solubility kinetic was > 41.3 µg/mL.
O=C(c1ccccc1SCc1ccccc1)N1CCOCC1 gave a solubility kinetic of 45.9 µg/mL (≈ 146 µM).
With CC(C)CC(=O)Nc1ccc(C(=O)CN2CCC(C)CC2)cc1 the solubility kinetic was 39.4 µg/mL (≈ 125 µM).
For CCCCS(=O)(=O)N1CCCC(C(=O)Nc2ccc(Cl)cn2)C1 (stereo not given), the solubility kinetic was 19.9 µg/mL (≈ 55.3 µM).
Cc1nccn1Cc1ccccc1 gave a solubility kinetic of 24.7 µg/mL (≈ 143 µM).
Compound CCCc1nc(SCC(=O)c2ccc(OC)cc2)c2ccccc2n1 has a solubility kinetic of 1.4 µg/mL (≈ 3.97 µM).
Compound COc1cccc(-c2c(C#N)c(N)nc3c2c(=O)nc2sccn23)c1 has a solubility kinetic of 23 µg/mL (≈ 65.8 µM).
For CN1CCCN(S(=O)(=O)c2cccc(C#N)c2)CC1.Cl, the solubility kinetic was > 47.4 µg/mL.
With Cc1ccc(S(=O)(=O)NC2CC(C)(C)NC(C)(C)C2)cc1C the solubility kinetic was > 48.7 µg/mL.
O=C1c2cccc3cccc(c23)C(=O)N1Cc1cccnc1 showed a solubility kinetic of 1.6 µg/mL (≈ 5.55 µM).
With OC1(C#CCCN2CCCCC2)c2ccccc2-c2ccccc21 the solubility kinetic was > 47.6 µg/mL.
Cc1ccc2[nH]c(CNC(=O)C3CCCCC3)cc2c1 gave a solubility kinetic of 19.6 µg/mL (≈ 72.5 µM).
For Cc1ccc(NC2CC(=O)N(c3cccc([N+](=O)[O-])c3)C2=O)cc1 (stereo not given), the solubility kinetic was 39 µg/mL (≈ 120 µM).
In the case of O=C(c1ccco1)N1CCN(S(=O)(=O)c2cccc(Cl)c2)CC1, the solubility kinetic is reported as > 53.2 µg/mL.
O=S(=O)(NC1CC1)c1ccccc1 gave a solubility kinetic of 28.3 µg/mL (≈ 143 µM).
In the case of Cl.Nc1nc2nc[nH]c2c(=O)[nH]1, the solubility kinetic is reported as 21.5 µg/mL.
In the case of Cc1ccc(/C=C/c2ccc3cccc(O)c3n2)s1, the solubility kinetic is reported as 1.4 µg/mL (≈ 5.24 µM).
In the case of O=c1ccc(-c2ccccc2)no1, the solubility kinetic is reported as > 26 µg/mL.
